Assay results reported in patent publication US20120022163A1 (priority 2010, published 2012).
Entries after “also recorded” stand apart in the source; their conditions may differ. Read-outs that look alike come from different tables or passages of the source.

Experiments:
[1] = test system: RML (Rocky Mountains Laboratories) strain of the mouse scrapie agent; assay type: in vivo, CD1 female mice; details: Log-Rank test
[2] = mouse, in vivo, po
PrP^sc [3] = assay type: in vivo, CD1 female mice; details: mice sacrificed at clinical end stage; brain
PrP^sc [4] = assay type: in vivo, CD1 female mice; details: ip infected mice; cerebellum, hippocampus and parietal cortex
gamma secretase = details: cited from earlier work

With `O=C(O)C1(c2ccc(-c3ccc(Cl)c(Cl)c3)c(F)c2)CC1` [CHF 5074] the “survival time, treated versus untreated” value ([1]; ic infected mice) was “no difference; also recorded: no effect”, the “survival time, treated versus untreated” value ([1]; ip infected mice) was “significantly increases the survival; also recorded: significant difference; also recorded: significantly prolongs survival times” and the “safety and tolerability of chronic administration” value [2] was “safe and well tolerate”. For the same compound, the “content of PrP^sc among the different groups (Western blot)” value (PrP^sc [3]) was “without significant differences”, the “PrP^sc deposits in brain areas (immunohistochemistry), treated compared to controls” value (PrP^sc [4]) was “significant lower PrP^sc deposits” and the “mode of action on gamma secretase” value (gamma secretase) was “gamma secretase modulator”.
